Experimental data: patent US10292994B2, “Bioactive fractions and compounds from Dalbergia sissoo for the prevention or treatment of osteo-health related disorders” (Council of Scientific & Industrial Research, priority 2011, dated 2019)
Marks after values point to notes of the source that are not given here.

What was measured:
Osteoblasts = experiment: Osteoblast growth / toxicity (MTT); format: cell-based, rat; details: FIG. 8; for growth / proliferation of the osteoblastic cells: 1 pM to 1 μM, 48 h
Experimental: (§1) Briefly, for calvarial osteoblast cultures, frontal and parietal bones from neonatal Sprague-Dawley rats (1-3 day old) were digested in 0.1% collagenase/0.1% dispase in α-MEM to obtain 5 sequential digests. The second through fifth digests are combined and grown to confluence at 37° C. and 5% CO2 in air in α-MEM, supplemented with 10% fetal bovine serum (FBS), 2 mM glutamine, 100 U/ml penicillin-streptomycin, non-essential amino acid solution and sodium pyruvate. These osteoblast cells were further used to test thirteen pure compounds designated as 1-13. During the course of culture, pre-osteoblasts undergo three characteristic stages of osteoblasts with the expression of stage specific genes. These are: • Proliferation & differentiation: Days 1-12 • Genes—cbfa1, Osterix, Alkaline phosphatase, • Collagen-1 • Extra-cellular matrix maturation: Days 12-18 • Genes—Osteocalcin, Osteopontin, Fibronectin • Mineralization: Days 14-35 • Feature—Calcification (nodule formation) Measurement of Osteoblast Alkaline Phosphatase (ALP) Activity
Many isoflavonoids at micromolar concentrations are known to inhibit osteoblast cell growth. Osteoblasts were cultured in the absence or presence of compounds (dissolved in 0.01% DMSO final concentration) at various concentrations (1 pM to 1 μM) for 48 h. Cells receiving vehicle (0.01% DMSO) served as control. After incubation, the cells were washed with PBS. Then, cells were treated with MTT solution (5 mg/10 mL in DMEM devoid of Phenol Red) for 4 h. Formazon crystals formed were dissolved in DMSO and O.D. was taken at 540 nm.

Calvarial osteoblasts = experiment: Osteoblast alkaline phosphatase (ALP) activity; format: cell-based, rat; details: for ALP activity: calvarial osteoblasts, 10 days culture, FIG. 6
Experimental: as §1, with “Neonatal rat calvarial cell cultures are prepared as described previously (Chattopadhyay et al., Endocrinology 145:3451-62, 2004) using slight modification. Briefly,” for “Briefly,”
Calvarial osteoblasts cells were plated (1500 cells/well in 12 well plate) in the osteoblast differentiation medium and the culture was continued for 10 days with or without treatment with these compounds. This is the time when the ALP levels peak, and serves as an osteoblast differentiation marker. The cells at this point were washed twice with PBS and then plates were fixed by keeping them at −70° C. for 1 h, and then brought to room temperature to determine ALP activity. The rate of the reaction here is directly proportional to the enzyme activity, which itself is proportional to osteoblast differentiation. The O.D. was measured at 405 nm with a microplate reader.

[1] = tested on: bone morphogenetic protein (BMP-2); experiment: In vivo osteogenic efficacy: BMP-2 expression in calvaria by qPCR; design: species or system rat; details: calvaria of 1- to 2-day-old rats, 5.0 mg·kg−1·day−1 s.c. for 3 consecutive days, fold change over vehicle/untreated, FIG. 7
Text: The results are expressed as fold change over untreated cells (FIG. 7).

[2] = tested on: ovariectomized Balb/c mice; experiment: μCT trabecular microarchitecture after 8 weeks treatment of osteopenic OVx mice; format: in vivo, mouse; design: Tb. Th. / Tb. Sp.: unit not given here; details: for SMI / Tb. No. / Tb. Sp. / Tb. Th. / BV/TV: 8 weeks; for BV/TV: osteopenic OVx mice, mean ± S.D.
Experimental: The study was conducted in accordance with current legislation on animal experiments [Institutional Animal Ethical Committee (IAEC)] at C.D.R.I. Balb/c mice weighing ˜25-30 gm were either bilaterally ovariectomized (OVx) or exposed to a sham surgical procedure. After ovariectomy, mice were left for 30 days for osteopenia to develop. Mice were individually housed at 21° C., in 12-h light:12-h dark cycles. All mice had excess to normal chow diet and water ad libitum. […], treatment in the form of gavage (1.0 mg and 5.0 mg/kg body weight) was given daily. Equal numbers of OVx and sham operated mice served as the control, and were given vehicle. At the end of 8 weeks, mice were euthanized. At autopsy, both femur and tibia were dissected and separated from adjacent tissue, cleaned, and used for μCT measurements.

[3] = tested on: bone marrow stromal cells; experiment: Mineralization of bone marrow stromal cells of estrogen deficient rats; format: in vivo, rat; details: estrogen deficient (OVx) rats vs OVx rats treated with vehicle; estrogen 2.5 μg/kg
[4] = tested on: ovariectomized (OVx) Sprague Dawley rats; experiment: μCT trabecular microarchitecture after 12 weeks treatment of OVx rats; format: in vivo, rat; details: for SMI / Tb. No. / Tb. Sp. / Tb. Th.: estradiol 2.5 μg·kg−1·day−1; for BV/TV: estradiol 2.5 μg·kg−1·day−1, mean ± S.D.
Experimental: The study was conducted in accordance with current legislation on animal experiments [Institutional Animal Ethical Committee (IAEC)] at C.D.R.I. […] Sprague Dawley rats weighing 180-200 gm were either bilaterally ovariectomized (OVx) or exposed to a sham surgical procedure. All rats were individually housed at 21° C., in 12-h light:12-h dark cycles. All rats had excess to normal chow diet and water ad libitum. After OVx, the rats were left for 12 weeks to develop osteopenia. […] Equal numbers of OVx and sham operated rats served as the control, and were given vehicle (20% ethanol). The rats were weighed each week. […] After twenty-four hours of fasting urine samples were collected in fresh containers, centrifuged at 2000 rpm at room temperature and stored at -20° C. until analyzed. Rats were then euthanized. At autopsy, blood samples were collected by cardiac puncture in tubes, and serum samples collected and frozen until analysis. Uteri were carefully excised, gently blotted, weighed, and fixed for histology and histomorphometry. About 5 mm pieces from the middle segment of each uterus were dehydrated in ascending grades of ethanol, cleared in xylene, and embedded in paraffin wax using standard procedures. Representative transverse sections (5 μm) were stained with H&E stain. Photomicrographs of sections were obtained using a Leica DC 300 camera and Leica IM50 Image Acquisition software fitted to a Leica DMLB microscope. Histomorphometric measurements were done using Leica Qwin-Semiautomatic image Analysis software. μCT (both 2-D and 3-D) determination of excised bones was carried out using the Sky Scan 1076 μCT scanner (Aartselaar, Belgium) using the cone-beam reconstruction software version 2.6 based on the Feldkamp algorithm (Skyscan). The bone marrow was harvested for ex vivo experiments. Both femora were dissected and separated from adjacent tissue, cleaned, and used for RNA isolation and also micro measurements. Trabecular response to A-4744/[…] treatment of OVx rats was quantified at the femur epiphysis and tibial proximal metaphysis.

[5] = femur, OVx mice, 1 mg · kg^-1 · day^-1
[6] = femur, OVx mice, 5 mg · kg^1 · day^1
[7] = tibia, OVx mice, 1 mg · kg^-1 · day^-1
[8] = tibia, OVx mice, 5 mg · kg^1 · day^1

COc1ccc(-c2coc3cc(O)cc(O)c3c2=O)cc1 [Compound 1, Biochanin A]
growth / proliferation of the osteoblastic cells (Osteoblasts): proliferation | ALP activity (Calvarial osteoblasts): significantly increased

COc1cc(-c2coc3cc(O)cc(O)c3c2=O)ccc1O [Compound 3, Pratensein or 3′-methoxygenistein]
growth / proliferation of the osteoblastic cells (Osteoblasts): proliferation | ALP activity (Calvarial osteoblasts): significantly increased

O=c1c(-c2ccc(O)cc2)coc2cc(O)cc(O)c12 [Compound 4, Genstein]
growth / proliferation of the osteoblastic cells (Osteoblasts): proliferation | ALP activity (Calvarial osteoblasts): significantly increased | increase in BMP-2 expression [1]: 5 fold

COc1ccc(-c2coc3cc(O[C@@H]4OC(CO)[C@@H](O)[C@H](O)C4O)cc(O)c3c2=O)cc1 (stereo partly drawn) [Compound 6, Biochanin 7-O-glycoside]
growth / proliferation of the osteoblastic cells (Osteoblasts): proliferation | melting point: 206 to 208 °C | ALP activity (Calvarial osteoblasts): significantly increased

COc1cc(OC)c(-c2coc3cc(O[C@@H]4OC(COC5OCC(O)(CO)C5O)[C@@H](O)C(O)C4O)c(OC)c(O)c3c2=O)cc1OC (stereo partly drawn) [Compound 10]
growth / proliferation of the osteoblastic cells (Osteoblasts): proliferation | toxicity to the cells (Osteoblasts; osteoblasts, 1 pM to 1 μM for 48 h, vs vehicle control): not toxic | trabecular bone in tibia metaphysis ([2]; OVx mice): significantly restored | Tb.sp and SMI ([2]; femur epiphysis of OVx mice compared to OVx+vehicle mice): increased | BV/TV, Tb.Th and Tb.N ([2]; femur epiphysis of OVx mice compared with OVx+vehicle group): increased | SMI [2, 5]: 1.992 ± 0.0382 | Tb. No. [2, 5]: 0.588 ± 0.034 | Tb. Sp. [2, 5]: 0.529 ± 0.022 | Tb. Th. [2, 5]: 0.069 ± 0.002 | SMI [2, 6]: 1.615 ± 0.0434***^a | Tb. No. [2, 6]: 0.759 ± 0.061***^b | Tb. Sp. [2, 6]: 0.502 ± 0.023 ^ | Tb. Th. [2, 6]: 0.070 ± 0.001 ^ | BV/TV ([2]; femur, 1 mg · kg^-1 · day^-1): 4.10 ± 0.253 % | BV/TV ([2]; femur, 5 mg · kg^1 · day^1): 5.54 ± 0.739***^a % | SMI [2, 7]: 2.46 ± 0.051 | Tb. No. [2, 7]: 0.222 ± 0.018 | Tb. Sp. [2, 7]: 0.690 ± 0.013 | Tb. Th. [2, 7]: 0.064 ± 0.0015 | SMI [2, 8]: 2.43 ± 0.072 | Tb. No. [2, 8]: 0.266 ± 0.014 | Tb. Sp. [2, 8]: 0.671 ± 0.040 | Tb. Th. [2, 8]: 0.065 ± 0.001 | BV/TV ([2]; tibia, 1 mg · kg^-1 · day^-1): 1.67 ± 0.086 % | BV/TV ([2]; tibia, 5 mg · kg^1 · day^1): 1.701 ± 0.120 % | melting point: 135 to 138 °C | ALP activity (Calvarial osteoblasts): significantly increased | increase in osteoblast differentiation over the control, assessed by ALP production (Calvarial osteoblasts; over the control, listed as Caviunin 7-O-[β-D-apiofuranosyl-(1→6)-β-D-glucopyranoside]): > 1.0 fold | increase in BMP-2 expression [1]: 15 fold | mineralization of the bone marrow stromal cells [3]: significantly greater mineralization

C[C@]12CC[C@@H]3c4ccc(O)cc4CC[C@H]3[C@@H]1CC[C@@H]2O [ESTRADIOL (E2), Estradiol]
SMI ([4]; femur): 2.41 ± 0.13 | Tb. No. ([4]; femur): 0.725 ± 0.024 | Tb. Sp. ([4]; femur): 0.86 ± 0.004 | Tb. Th. ([4]; femur): 0.78 ± 0.01 | BV/TV ([4]; femur): 59.23 ± 30.19 % | SMI ([4]; tibia): 2.24 ± 0.021 | Tb. No. ([4]; tibia): 0.30 ± 0.02 | Tb. Sp. ([4]; tibia): 1.29 ± 0.029 | Tb. Th. ([4]; tibia): 0.10 ± 0.004 | BV/TV ([4]; tibia): 3.04 ± 0.24 % | mineralization of the bone marrow stromal cells [3]: unable to increase mineralization
